ChEMBL document CHEMBL2380250, “Novel VEGFR-2 kinase inhibitors identified by the back-to-front approach” (Bioorg Med Chem Lett, 2013)
pIC50: −log10 of the molar value. The source made the active and inactive calls. The calls are words filed in the database; no cut-off is given here.

How the values were obtained:
[1] = biological target: Platelet-derived growth factor receptor beta (Homo sapiens) (UniProt P09619); experiment: Inhibition of human recombinant PDGFR-beta expressed in insect cells using Ulight-Poly GAT[EAY(1:1:1)] as substrate at 1 uM after 15 to 60 mins by fluorescence assay
[2] = biological target: Epidermal growth factor receptor (Homo sapiens) (UniProt P00533); experiment: Inhibition of human recombinant EGFR expressed in insect cells using Ulight-CAGAGAIETDKEYYTVKD as substrate at 1 uM after 15 to 60 mins by fluorescence assay
[3] = test system: HUVEC; experiment: Cytotoxicity against HUVEC by MTT assay; details: Homo sapiens
[4] = Ratio of cytotoxicity against human EAhy926 cells to antiangiogenic activity in VEGF-stimulated human EAhy926 cells; assay type: toxicity, cell-based
[5] = test system: EA.hy 926; experiment: Antiangiogenic activity in VEGF-stimulated human EAhy926 cells assessed as inhibition of tube formation at 0.3 uM measured at 24 hrs; assay type: functional, cell-based
[6] = Cytotoxicity against human EAhy926 cells assessed as growth inhibition by MTT assay; assay type: cell-based; details: EA.hy 926
[7] = test system: HepG2; experiment: Cytotoxicity against human HepG2 cells assessed as growth inhibition by MTT assay; assay type: cell-based
[8] = Cytotoxicity against human H460 cells assessed as growth inhibition by MTT assay; assay type: cell-based; details: NCI-H460
[9] = test system: MCF7; experiment: Cytotoxicity against human MCF7 cells assessed as growth inhibition by MTT assay; assay type: cell-based
[10] = test system: HeLa; experiment: Cytotoxicity against human HeLa cells assessed as growth inhibition by MTT assay; assay type: cell-based
[11] = biological target: Vascular endothelial growth factor receptor 2 (Homo sapiens, UniProt P35968); experiment: Inhibition of human recombinant VEGFR2 expressed in insect cells using Ulight-CAGAGAIETDKEYYTVKD as substrate after 15 to 60 mins by fluorescence assay
Sequence of Vascular endothelial growth factor receptor 2 (P35968 whole entry): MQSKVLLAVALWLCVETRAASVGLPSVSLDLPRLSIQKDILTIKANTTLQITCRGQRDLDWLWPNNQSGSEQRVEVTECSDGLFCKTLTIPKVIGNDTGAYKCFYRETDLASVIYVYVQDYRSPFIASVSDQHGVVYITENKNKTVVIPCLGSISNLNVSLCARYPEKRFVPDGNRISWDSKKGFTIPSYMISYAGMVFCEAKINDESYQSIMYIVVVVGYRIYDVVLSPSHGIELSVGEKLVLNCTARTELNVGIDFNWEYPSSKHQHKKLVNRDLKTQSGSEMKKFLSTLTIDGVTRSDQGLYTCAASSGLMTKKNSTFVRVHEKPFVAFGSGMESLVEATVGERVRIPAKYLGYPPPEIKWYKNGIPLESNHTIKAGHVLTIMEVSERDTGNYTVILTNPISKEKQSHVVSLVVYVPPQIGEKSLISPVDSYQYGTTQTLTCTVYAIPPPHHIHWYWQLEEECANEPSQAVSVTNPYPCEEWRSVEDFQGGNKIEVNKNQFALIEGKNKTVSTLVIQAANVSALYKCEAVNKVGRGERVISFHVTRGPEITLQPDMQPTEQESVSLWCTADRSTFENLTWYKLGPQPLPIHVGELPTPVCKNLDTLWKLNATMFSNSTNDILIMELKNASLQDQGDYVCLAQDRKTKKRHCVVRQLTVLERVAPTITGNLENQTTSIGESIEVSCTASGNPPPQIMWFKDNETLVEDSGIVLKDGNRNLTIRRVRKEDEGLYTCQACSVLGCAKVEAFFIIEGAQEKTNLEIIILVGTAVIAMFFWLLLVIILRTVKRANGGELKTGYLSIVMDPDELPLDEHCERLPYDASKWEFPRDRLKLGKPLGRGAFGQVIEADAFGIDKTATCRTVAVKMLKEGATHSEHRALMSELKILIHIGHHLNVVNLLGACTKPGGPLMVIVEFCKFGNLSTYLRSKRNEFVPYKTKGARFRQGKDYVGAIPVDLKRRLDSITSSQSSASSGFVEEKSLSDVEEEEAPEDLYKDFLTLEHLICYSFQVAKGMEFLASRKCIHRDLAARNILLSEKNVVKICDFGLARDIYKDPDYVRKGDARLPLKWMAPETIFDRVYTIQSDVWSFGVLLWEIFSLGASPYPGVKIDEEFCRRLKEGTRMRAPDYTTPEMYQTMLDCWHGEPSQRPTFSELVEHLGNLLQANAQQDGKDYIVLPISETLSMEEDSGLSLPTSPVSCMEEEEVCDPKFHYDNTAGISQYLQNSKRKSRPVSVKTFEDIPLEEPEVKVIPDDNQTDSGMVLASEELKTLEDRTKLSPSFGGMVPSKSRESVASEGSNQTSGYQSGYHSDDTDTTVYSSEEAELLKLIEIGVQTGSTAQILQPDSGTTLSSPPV

Sequence of Platelet-derived growth factor receptor beta (Homo sapiens) (P09619 whole entry): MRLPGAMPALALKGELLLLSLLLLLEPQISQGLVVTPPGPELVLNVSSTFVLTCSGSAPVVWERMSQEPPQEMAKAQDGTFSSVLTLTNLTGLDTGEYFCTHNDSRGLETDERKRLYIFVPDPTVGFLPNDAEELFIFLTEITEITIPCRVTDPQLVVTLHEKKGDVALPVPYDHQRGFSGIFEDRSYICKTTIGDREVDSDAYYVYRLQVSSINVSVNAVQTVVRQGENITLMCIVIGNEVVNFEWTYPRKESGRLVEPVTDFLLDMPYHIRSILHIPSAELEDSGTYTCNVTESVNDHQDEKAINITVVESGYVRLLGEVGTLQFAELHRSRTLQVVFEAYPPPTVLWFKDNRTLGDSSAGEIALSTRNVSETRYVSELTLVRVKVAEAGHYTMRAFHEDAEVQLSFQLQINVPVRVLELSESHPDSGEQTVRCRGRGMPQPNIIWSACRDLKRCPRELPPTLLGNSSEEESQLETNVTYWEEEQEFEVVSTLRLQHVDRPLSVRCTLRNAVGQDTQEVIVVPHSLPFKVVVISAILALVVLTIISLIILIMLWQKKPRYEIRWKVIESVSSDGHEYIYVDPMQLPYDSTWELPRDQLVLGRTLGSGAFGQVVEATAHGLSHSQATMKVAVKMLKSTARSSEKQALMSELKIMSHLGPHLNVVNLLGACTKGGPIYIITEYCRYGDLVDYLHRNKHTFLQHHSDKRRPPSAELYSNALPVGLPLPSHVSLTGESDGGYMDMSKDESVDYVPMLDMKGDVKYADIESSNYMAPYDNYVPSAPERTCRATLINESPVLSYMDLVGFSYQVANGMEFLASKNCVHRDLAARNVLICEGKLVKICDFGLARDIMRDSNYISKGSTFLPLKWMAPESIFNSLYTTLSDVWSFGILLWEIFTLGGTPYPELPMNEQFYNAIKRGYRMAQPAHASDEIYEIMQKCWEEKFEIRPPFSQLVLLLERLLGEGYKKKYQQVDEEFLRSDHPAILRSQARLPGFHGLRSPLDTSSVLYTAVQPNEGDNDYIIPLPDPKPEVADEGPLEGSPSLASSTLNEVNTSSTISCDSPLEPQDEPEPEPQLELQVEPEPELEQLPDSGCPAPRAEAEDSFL
Sequence of Epidermal growth factor receptor (Homo sapiens) (P00533 whole entry): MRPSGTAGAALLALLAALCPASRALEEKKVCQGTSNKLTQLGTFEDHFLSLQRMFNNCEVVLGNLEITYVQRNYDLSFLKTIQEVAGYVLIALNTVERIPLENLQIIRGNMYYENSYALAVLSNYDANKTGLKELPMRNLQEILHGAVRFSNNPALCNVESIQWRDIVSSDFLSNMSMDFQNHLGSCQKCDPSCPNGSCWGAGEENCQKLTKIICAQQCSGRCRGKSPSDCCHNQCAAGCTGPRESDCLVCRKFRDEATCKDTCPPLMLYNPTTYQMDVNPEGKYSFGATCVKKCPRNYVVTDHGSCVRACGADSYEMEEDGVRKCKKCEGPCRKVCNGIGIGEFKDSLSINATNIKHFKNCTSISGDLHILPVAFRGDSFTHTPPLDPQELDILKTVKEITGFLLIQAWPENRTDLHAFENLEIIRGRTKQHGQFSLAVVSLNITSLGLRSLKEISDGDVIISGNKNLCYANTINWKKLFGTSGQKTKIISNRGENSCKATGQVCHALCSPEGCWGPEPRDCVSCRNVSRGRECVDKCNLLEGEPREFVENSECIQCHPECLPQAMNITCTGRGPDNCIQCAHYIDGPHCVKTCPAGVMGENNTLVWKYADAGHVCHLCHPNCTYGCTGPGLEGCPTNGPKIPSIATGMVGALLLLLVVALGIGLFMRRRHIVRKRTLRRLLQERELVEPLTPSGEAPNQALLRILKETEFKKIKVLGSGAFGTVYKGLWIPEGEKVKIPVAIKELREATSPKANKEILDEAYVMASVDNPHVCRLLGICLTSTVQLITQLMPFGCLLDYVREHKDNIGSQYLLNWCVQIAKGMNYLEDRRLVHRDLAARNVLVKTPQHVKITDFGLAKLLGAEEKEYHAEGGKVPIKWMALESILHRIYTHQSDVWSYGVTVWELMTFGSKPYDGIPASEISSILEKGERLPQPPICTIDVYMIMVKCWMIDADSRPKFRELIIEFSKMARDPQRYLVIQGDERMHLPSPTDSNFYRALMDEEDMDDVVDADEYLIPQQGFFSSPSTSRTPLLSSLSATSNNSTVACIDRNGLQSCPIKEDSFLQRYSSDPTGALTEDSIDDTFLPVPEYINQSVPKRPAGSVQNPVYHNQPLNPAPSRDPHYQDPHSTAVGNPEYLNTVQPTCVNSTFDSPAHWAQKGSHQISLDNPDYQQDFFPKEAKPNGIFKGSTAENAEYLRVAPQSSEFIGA

SMILES	inhibition [1]	inhibition [2]	other results
NS(=O)(=O)c1cccc(-n2cc(CNC(=O)Nc3cccc(CCl)c3)nn2)c1	inactive	Active	
O=C(NCc1cn(-c2ccc3scnc3c2)nn1)Nc1cccc(CCl)c1	inactive	Active	
NS(=O)(=O)c1ccc(-n2cc(CNC(=O)Nc3cccc(CCl)c3)nn2)cc1	inactive	Active	
CC(=O)N1CCc2ccc(-n3cc(CNC(=O)Nc4cccc(CCl)c4)nn3)cc21	inactive	Active	
O=C(NCc1cn(-c2ccc3ncsc3c2)nn1)Nc1cccc(CCl)c1	inactive	Active	
CNC(=O)c1cc(Oc2ccc(NC(=O)Nc3ccc(Cl)c(C(F)(F)F)c3)cc2)ccn1 [SORAFENIB]			pIC50 [3]: 5.40
O=C(NCc1cn(CCN2C(=O)c3ccccc3C2=O)nn1)Nc1cccc(CCl)c1	inactive	Active	
COC(=O)c1ccc(-n2cc(CNC(=O)Nc3cccc(CCl)c3)nn2)cc1	inactive	Active	
O=C(NCc1cn(-c2ccc3cn[nH]c3c2)nn1)Nc1cccc(CCl)c1	inactive	Active	selectivity ratio [4]: 13; inhibition [5]: Active; pIC50 [6]: 5.40; pIC50 [7]: < 4.00; pIC50 [8]: 4.15; pIC50 [9]: 4.68; pIC50 [10]: 4.48; pIC50 [11]: 6.25
O=C(NCc1cn(-c2ccc(S(=O)(=O)N3CCOCC3)cc2)nn1)Nc1cccc(CCl)c1	inactive	Active	
O=C(NCc1cn(Cc2cc(=O)[nH]c3ccccc23)nn1)Nc1cccc(CCl)c1	inactive	Active	
C#CCNC(=O)Nc1cccc(CCl)c1	inactive	Active	
O=C(NCc1cn(-c2ccc3[nH]ncc3c2)nn1)Nc1cccc(CCl)c1	inactive	Active	
